Reference: the supplement of paper PMC10307832

Key:
Assay in all cases: relative viability (nuclei count vs DMSO), 5 days (fraction); higher = more cells survive
Vismodegib + Trametinib = compound: CS(=O)(=O)c1ccc(C(=O)Nc2ccc(Cl)c(-c3ccccn3)c2)c(Cl)c1 [Vismodegib] + CC(=O)Nc1cccc(-n2c(=O)n(C3CC3)c(=O)c3c(Nc4ccc(I)cc4F)n(C)c(=O)c(C)c32)c1 [Trametinib] (partner 0.02 µM)
How it was run: (§1)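 Lung cancer cell lines in 1536-well plates were dosed by pin tool the day after seeding, either with one drug alone or with a fixed anchor-drug dose plus five library-drug doses (not always all listed) in √10 steps. After 5 days, cells were fixed and their nuclei stained in one step (final 0.05% Triton X-100, 1% formaldehyde, 1 ug/ml Hoechst), then counted on 4× images. Relative viability is the nuclei count in treated wells divided by that in vehicle wells. Values are medians of duplicate plates.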

Vismodegib + Phenformin = compound: CS(=O)(=O)c1ccc(C(=O)Nc2ccc(Cl)c(-c3ccccn3)c2)c(Cl)c1 [Vismodegib] + N=C(N)NC(=N)NCCc1ccccc1 [Phenformin] (partner 250 µM)
How it was run: as §1

VE-821 + Dasatinib = compound: CS(=O)(=O)c1ccc(-c2cnc(N)c(C(=O)Nc3ccccc3)n2)cc1 [VE-821] + Cc1nc(Nc2ncc(C(=O)Nc3c(C)cccc3Cl)s2)cc(N2CCN(CCO)CC2)n1 [Dasatinib] (partner 0.075 µM)
How it was run: as §1

VE-821 + OSI-027 = compound: CS(=O)(=O)c1ccc(-c2cnc(N)c(C(=O)Nc3ccccc3)n2)cc1 [VE-821] + COc1cccc2cc(-c3nc([C@H]4CC[C@H](C(=O)O)CC4)n4ncnc(N)c34)[nH]c12 [OSI-027] (partner 0.5 µM)
How it was run: as §1

Cell Line	relative viability (Vismodegib + Trametinib; first compound 0.08 µM)	relative viability (Vismodegib + Trametinib; first compound 0.253 µM)	relative viability (Vismodegib + Trametinib; first compound 0.8 µM)	relative viability (Vismodegib + Trametinib; first compound 2.53 µM)	relative viability (Vismodegib + Trametinib; first compound 8 µM)	relative viability (Vismodegib + Phenformin; first compound 0.08 µM)	relative viability (Vismodegib + Phenformin; first compound 0.253 µM)	relative viability (Vismodegib + Phenformin; first compound 0.8 µM)	relative viability (Vismodegib + Phenformin; first compound 2.53 µM)	relative viability (Vismodegib + Phenformin; first compound 8 µM)	relative viability (VE-821 + Dasatinib; first compound 0.08 µM)	relative viability (VE-821 + Dasatinib; first compound 0.253 µM)	relative viability (VE-821 + Dasatinib; first compound 0.8 µM)	relative viability (VE-821 + Dasatinib; first compound 2.53 µM)	relative viability (VE-821 + Dasatinib; first compound 8 µM)	relative viability (VE-821 + OSI-027; first compound 0.08 µM)	relative viability (VE-821 + OSI-027; first compound 0.253 µM)	relative viability (VE-821 + OSI-027; first compound 0.8 µM)	relative viability (VE-821 + OSI-027; first compound 2.53 µM)	relative viability (VE-821 + OSI-027; first compound 8 µM)
ChaGo-K-1	0.849	0.904	0.919	0.781	0.796	0.523	0.448	0.47	0.459	0.452	0.553	0.525	0.582	0.62	0.418	0.624	0.475	0.669	0.649	0.419
HCC-44	1.11	1.05	1.05	1.04	0.976	0.184	0.195	0.179	0.173	0.183						0.498	0.427	0.634	0.563	0.556
NCI-H441	0.512		0.409	0.469	0.489	0.838	0.648	0.831	0.835	0.907	0.641	0.558	0.706	0.687	0.539	0.718	0.641	0.644	0.72	0.583
LU99A	0.586	0.524	0.536	0.531	0.539	0.901	0.807	0.813	0.802	0.772	0.552	0.562	0.551	0.571	0.303	0.298	0.304	0.292	0.257	0.244
NCI-H520	0.702	0.554	0.768	0.692	0.74	0.535	0.576	0.63	0.574	0.688	0.232	0.23	0.166	0.298	0.165	0.257	0.257	0.195	0.278	0.208
EPLC-272H	0.276	0.269	0.246	0.282	0.297	0.348	0.313	0.316	0.271	0.264	0.341	0.325	0.418	0.41	0.219	0.286	0.268	0.296	0.333	0.21
PC-14	0.606	0.65	0.694	0.659	0.796	0.658	0.444	0.567	0.512	0.602	0.231	0.238	0.269	0.229	0.0835	1.01	0.762	0.913	0.824	0.336
LCLC-103H	0.703	0.666	0.65	0.612	0.71	0.39	0.332	0.328	0.357	0.323	0.418	0.525	0.31	0.474	0.513	0.478	0.478	0.404	0.468	0.365
COR-L 105	0.451	0.517	0.435	0.385	0.475	0.498	0.441	0.516	0.506	0.495	0.327	0.313	0.276	0.344	0.255	0.741	0.551	0.647	0.642	0.695
NCI-H2342	1.02	0.738	0.843	0.764	0.728	0.632	0.612	0.581	0.475	0.529	0.331	0.329	0.311	0.324	0.293	0.648	0.54	0.639	0.584	0.527
SW 900	0.801	0.73	1.1		0.921	0.615	0.612	0.718	0.744	0.676	0.7	0.545	0.397	0.658	0.37	0.459	0.444	0.527	0.552	0.382
LOU-NH91	0.762	0.804	0.8	0.786	0.772	0.66	0.68	0.67	0.75	0.681	0.571	0.489	0.567	0.55	0.584	0.731	0.71	0.766	0.778	0.747
HCC-15	0.356	0.352	0.345	0.401	0.383	0.511	0.458	0.472	0.496	0.441	0.704	0.595	0.6	0.721	0.495	0.835	0.689	0.692	0.855	0.682
A-427	0.812	0.82	0.654	0.777	0.913	0.307	0.385	0.385	0.314	0.283	0.793	0.647	0.657	0.652	0.423	0.514	0.418	0.391	0.412	0.286
SW 1573	0.571	0.522	0.609	0.548	0.552	0.493	0.353	0.4	0.323	0.385	0.49	0.573	0.551	0.503	0.218	0.549	0.853	0.649	0.823	0.453
NCI-H2087	0.199	0.183	0.166	0.172	0.213	0.45	0.445	0.427	0.45	0.399	0.871	0.814	0.912	1.2	0.786	0.537	0.576	0.515	0.683	0.495
LK-2	0.645	0.726	0.628	0.831	0.615	0.617	0.619	0.431	0.366	0.373	0.269	0.26	0.273	0.352	0.38	0.194	0.203	0.245	0.221	0.176
